Where two headings read alike, the source gives them in different places. Each block holds one compound with its values, some of them ahead of it.
Legend:
PC-3 = assay: Monolayer Cell Culture Assay, IC50; format: cell-based; conditions: PC-3, Prostate
Source text: (§1) All IC50 studies' methodology and materials are described in full details in international publication number WO 2019/160806 dated Aug. 22, 2019, but with substituting the binary molecular complex with the ternary molecular complex of the present invention.

SK-ES-1 = assay: Monolayer Cell Culture Assay, IC50; format: cell-based; conditions: SK-ES-1, Sarcoma
Source text: as §1

U-2 OS = assay: Monolayer Cell Culture Assay, IC50; format: cell-based; conditions: Sarcoma
Source text: as §1

CT26 = assay: Monolayer Cell Culture Assay, IC50; format: cell-based; conditions: Mus musculus, CT26, Colon
Source text: as §1

PANC-1 = assay: Monolayer Cell Culture Assay, IC50; format: cell-based; conditions: PANC-1, Pancreas
Source text: as §1

HT29 = assay: Monolayer Cell Culture Assay, IC50; format: cell-based; conditions: Homo sapiens, HT-29, HT29, Colon
Source text: as §1

MC38 = assay: Monolayer Cell Culture Assay, IC50; format: cell-based; conditions: Mus musculus, MC-38, MC38, Colon
Source text: as §1

A549 = assay: Monolayer Cell Culture Assay, IC50; format: cell-based; conditions: A549, Lung
Source text: as §1

HCT116 = assay: Monolayer Cell Culture Assay, IC50; format: cell-based; conditions: Homo sapiens, HCT-116, HCT116, Colon
Source text: as §1

SK-Mel-5 = assay: Monolayer Cell Culture Assay, IC50; format: cell-based; conditions: SK-Mel-5, Skin
Source text: as §1

[1] = cited from earlier work
lung cancer cells = assay: Sphere assay; format: cell-based
Source text: All sphere assay studies methodology and materials are described in full details in international publication number WO 2019/160806 dated Aug. 22, 2019, but with substituting the binary molecular complex with the ternary molecular complex of the present invention.

[2] = format: physicochemical
Experimental: 30.0 mg of tamibarotene, 11.4 mg of L-malic acid and 43.5 mg of telmisartan (1:1:1 molar ratio) were stirred as an open slurry in 1 mL of acetone in a glass vial. After 16-24 hours of stirring mixture was further dried at room temperature until, a completely dried mixture is obtained. The resulted material was stored in a screw cap vial and characterized by PXRD and IR. PXRD comparison of binary tamibarotene-L-malic acid complex (TN-513) with tamibarotene-L-malic acid-telmisartan (TN-513-T) also confirmed the successful synthesis of a ternary complex. Synthesis of ternary TN-513-T was scaled up to 150 mg of tamibarotene and stability was tested on accelerated conditions (75% humidity at 40° C.) for 1 and three months.

[3] = Homo sapiens, average of two tests, read-out: IC50 Test AVG Avg
[4] = Homo sapiens, read-out: IC50 Test (II) Avg
[5] = Homo sapiens, read-out: IC50 Test(I) Avg
[6] = average of two tests, read-out: IC50 Test AVG Avg

IC50 (PC-3; [3]): > 100 µM
IC50 (PC-3; [4]): > 100 µM
IC50 (PC-3; [5]): > 100 µM
IC50 (SK-ES-1; Homo sapiens, SK-ES1, average of two tests, read-out: IC50 Test AVG Avg): > 100 µM
IC50 (SK-ES-1; Homo sapiens, SK-ES1, read-out: IC50 Test (II) Avg): > 100 µM
IC50 (SK-ES-1; Homo sapiens, SK-ES1, read-out: IC50 Test(I) Avg): > 100 µM
IC50 (U-2 OS; Homo sapiens, U2OS, average of two tests, read-out: IC50 Test AVG Avg): > 100 µM
IC50 (U-2 OS; Homo sapiens, U2OS, read-out: IC50 Test (II) Avg): > 100 µM
IC50 (U-2 OS; Homo sapiens, U2OS, read-out: IC50 Test(I) Avg): > 100 µM
IC50 (CT26; [6]): 87.3 µM
IC50 (CT26; read-out: IC50 Test (I) Avg): 61.9 µM
IC50 (CT26; read-out: IC50 Test (II) Avg): 94.8 µM
IC50 (PANC-1; [3]): > 100 µM
IC50 (PANC-1; [4]): > 100 µM
IC50 (PANC-1; [5]): > 100 µM
IC50 (HT29; [6]): 100 µM
IC50 (HT29; read-out: IC50 Test (I) Avg): 88.9 µM
IC50 (HT29; read-out: IC50 Test (II) Avg): 111 µM
IC50 (MC38; [6]): 101 µM
IC50 (MC38; read-out: IC50 Test (I) Avg): 65.7 µM
IC50 (MC38; read-out: IC50 Test (II) Avg): 137 µM
IC50 (A549; [3]): 60.3 µM
IC50 (HCT116; [6]): 60.4 µM
IC50 (HCT116; read-out: IC50 Test (I) Avg): 49.6 µM
IC50 (HCT116; read-out: IC50 Test (II) Avg): 71.3 µM
IC50 (SK-Mel-5; [3]): > 100 µM
IC50 (SK-Mel-5; [4]): > 100 µM
IC50 (SK-Mel-5; [5]): > 100 µM
Structure (SMILES): CC1(C)CCC(C)(C)c2cc(NC(=O)c3ccc(C(=O)O)cc3)ccc21 [TAM, 4-[(5,5,8,8-tetramethyl-5,6,7,8-tetrahydronaphthalen-2-yl)carbamoyl]benzoic acid, reference compound]
solubility in organic solvents ([1]; DMF, methanol, ethanol, DMSO, and other organic solvents): soluble
solubility in acetonitrile, water, and various other buffer solutions ([1]; acetonitrile, water, buffer solutions pH3~7 (CN 101200435 B)): insoluble

IC50 (PC-3; [6]): 106 µM
IC50 (PC-3; read-out: IC50 Test (II) Avg): 111 µM
IC50 (PC-3; read-out: IC50 Test(I) Avg): 102 µM
IC50 (SK-ES-1; [6]): 31.4 µM
IC50 (SK-ES-1; read-out: IC50 Test (II) Avg): 33.6 µM
IC50 (SK-ES-1; read-out: IC50 Test(I) Avg): 29.2 µM
IC50 (U-2 OS; [6]): 42.8 µM
IC50 (U-2 OS; read-out: IC50 Test (II) Avg): 45.8 µM
IC50 (U-2 OS; read-out: IC50 Test(I) Avg): 39.9 µM
IC50 (PANC-1; [6]): 70.6 µM
IC50 (PANC-1; read-out: IC50 Test (II) Avg): 88 µM
IC50 (PANC-1; read-out: IC50 Test(I) Avg): 53.3 µM
IC50 (A549; [6]): 52.4 µM
IC50 (A549; read-out: IC50 Test (II) Avg): 62.2 µM
IC50 (A549; read-out: IC50 Test(I) Avg): 42.7 µM
IC50 (SK-Mel-5; [6]): 46.1 µM
IC50 (SK-Mel-5; read-out: IC50 Test (II) Avg): 42.6 µM
IC50 (SK-Mel-5; read-out: IC50 Test(I) Avg): 49.5 µM
Structure (SMILES): CC1(C)CCC(C)(C)c2cc(NC(=O)c3ccc(C(=O)O)cc3)ccc21.CCOc1nc2cccc(C(=O)O)c2n1Cc1ccc(-c2ccccc2-c2nn[nH]n2)cc1 [TN513:CS, Tamibarotene:L-malic acid:candesartan]

IC50 (PC-3; [6]): 332 µM
IC50 (PC-3; read-out: IC50 Test (II) Avg): 343 µM
IC50 (PC-3; read-out: IC50 Test(I) Avg): 322 µM
IC50 (SK-ES-1; [6]): 106 µM
IC50 (SK-ES-1; read-out: IC50 Test (II) Avg): 122 µM
IC50 (SK-ES-1; read-out: IC50 Test(I) Avg): 90 µM
IC50 (U-2 OS; [6]): 64.8 µM
IC50 (U-2 OS; read-out: IC50 Test (II) Avg): 69.6 µM
IC50 (U-2 OS; read-out: IC50 Test(I) Avg): 59.9 µM
IC50 (PANC-1; [6]): 126 µM
IC50 (PANC-1; read-out: IC50 Test (II) Avg): 149 µM
IC50 (PANC-1; read-out: IC50 Test(I) Avg): 104 µM
IC50 (A549; [6]): 110 µM
IC50 (A549; read-out: IC50 Test (II) Avg): 126 µM
IC50 (A549; read-out: IC50 Test(I) Avg): 93.8 µM
IC50 (SK-Mel-5; [6]): 116 µM
IC50 (SK-Mel-5; read-out: IC50 Test (II) Avg): 132 µM
IC50 (SK-Mel-5; read-out: IC50 Test(I) Avg): 99.9 µM
Structure (SMILES): CC1(C)CCC(C)(C)c2cc(NC(=O)c3ccc(C(=O)O)cc3)ccc21.CCCCc1nc(Cl)c(CO)n1Cc1ccc(-c2ccccc2-c2nn[nH]n2)cc1 [TN513:LS, Tamibarotene:L-malic acid:losartan]

IC50 (PC-3; [6]): 71.2 µM
IC50 (PC-3; read-out: IC50 Test (II) Avg): 70.8 µM
IC50 (PC-3; read-out: IC50 Test(I) Avg): 71.7 µM
IC50 (SK-ES-1; [6]): 17.9 µM
IC50 (SK-ES-1; read-out: IC50 Test (II) Avg): 18.4 µM
IC50 (SK-ES-1; read-out: IC50 Test(I) Avg): 17.4 µM
IC50 (U-2 OS; [6]): 12.9 µM
IC50 (U-2 OS; read-out: IC50 Test (II) Avg): 14.6 µM
IC50 (U-2 OS; read-out: IC50 Test(I) Avg): 11.2 µM
IC50 (PANC-1; [6]): 32.5 µM
IC50 (PANC-1; read-out: IC50 Test (II) Avg): 40.2 µM
IC50 (PANC-1; read-out: IC50 Test(I) Avg): 24.8 µM
IC50 (A549; [6]): 16 µM
IC50 (A549; read-out: IC50 Test (II) Avg): 19.9 µM
IC50 (A549; read-out: IC50 Test(I) Avg): 12 µM
IC50 (SK-Mel-5; [6]): 20.7 µM
IC50 (SK-Mel-5; read-out: IC50 Test (II) Avg): 26.1 µM
IC50 (SK-Mel-5; read-out: IC50 Test(I) Avg): 15.3 µM
stability on accelerated conditions (PXRD) [2]: no change in PXRD data
Structure (SMILES): CC1(C)CCC(C)(C)c2cc(NC(=O)c3ccc(C(=O)O)cc3)ccc21.CCCc1nc2c(C)cc(-c3nc4ccccc4n3C)cc2n1Cc1ccc(-c2ccccc2C(=O)O)cc1.O=C(O)C[C@H](O)C(=O)O [TN513:TS, Tamibarotene:L-malic acid:telmisartan]
preventing sphere aggregation (sphere formation efficacy) (lung cancer cells; FIG. 10): superior efficacy preventing sphere aggregation
total surface area of the cancer cell spheres (lung cancer cells; FIG. 11): dramatically reducing the total surface area

— US20220185767A1, “NOVEL TERNARY MOLECULAR COMPLEX OF TAMIBAROTENE FOR CANCER STEM CELLS TREATMENT” (TRANSGENEX NANOBIOTECH, INC., priority 2019, published 2022)
